Measured values taken from patent US10160755B2 (Plexxikon Inc., priority 2015, dated 2018).

Target: T1, BA/F3-FLT3-ITD + F691L cells (Homo sapiens, UniProt P36888, F691L, cells depend on it, form not given)
T1 sequence (P36888 1-993 F691L): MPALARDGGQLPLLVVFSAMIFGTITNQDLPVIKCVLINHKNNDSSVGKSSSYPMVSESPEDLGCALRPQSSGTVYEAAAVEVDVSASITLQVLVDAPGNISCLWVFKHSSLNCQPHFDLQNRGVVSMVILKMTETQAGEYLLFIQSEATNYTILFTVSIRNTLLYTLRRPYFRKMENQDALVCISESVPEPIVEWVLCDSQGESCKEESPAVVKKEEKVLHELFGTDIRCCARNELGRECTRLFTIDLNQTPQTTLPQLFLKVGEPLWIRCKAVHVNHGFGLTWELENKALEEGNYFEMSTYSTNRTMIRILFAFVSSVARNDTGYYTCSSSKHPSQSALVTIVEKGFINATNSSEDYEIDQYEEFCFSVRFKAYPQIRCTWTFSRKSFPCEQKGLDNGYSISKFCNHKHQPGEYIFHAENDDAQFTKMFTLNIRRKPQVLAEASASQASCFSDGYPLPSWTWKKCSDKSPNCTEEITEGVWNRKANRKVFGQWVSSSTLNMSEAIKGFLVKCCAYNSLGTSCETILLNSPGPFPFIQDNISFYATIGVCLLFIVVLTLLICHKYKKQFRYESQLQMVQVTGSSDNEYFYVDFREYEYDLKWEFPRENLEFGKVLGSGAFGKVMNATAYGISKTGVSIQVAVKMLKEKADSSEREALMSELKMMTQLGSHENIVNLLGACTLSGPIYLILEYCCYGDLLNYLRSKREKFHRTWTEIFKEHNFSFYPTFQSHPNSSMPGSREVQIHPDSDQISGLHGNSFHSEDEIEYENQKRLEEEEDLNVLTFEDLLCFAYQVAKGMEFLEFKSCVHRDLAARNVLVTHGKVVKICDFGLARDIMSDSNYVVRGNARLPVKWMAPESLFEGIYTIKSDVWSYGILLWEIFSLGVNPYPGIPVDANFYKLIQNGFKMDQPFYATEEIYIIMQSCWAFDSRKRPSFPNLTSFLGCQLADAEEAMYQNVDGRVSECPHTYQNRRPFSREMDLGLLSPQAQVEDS
Assay: BA/F3-FLT3-ITD + F691L cell proliferation assay (CellTiter-Glo)
Format: cell-based, murine
Settings: BaF3 FLT3 ITD/F691L cells; read-out: Cell Activity (IC50 μM) BaF3_FLT3_ITD/F691L
Description: The FLT3 inhibitors may also be assessed using leukemia cell lines that express endogenous FLT3-ITD or cells that are engineered to express wild-type or mutant FLT3. The cells expressing endogenous FLT3 are dependent upon FLT3 catalytic activity for growth. For the engineered cells, murine BA/F3 cells were transfected with full-length FLT3 (either wild-type, or containing the ITD, D835Y, or F691L mutations, as noted). The parental BA/F3 cells are dependent upon Interleukin-3 (IL-3) for survival, and introduction of the FLT3 constructs renders these cells dependent upon FLT3 kinase activity when cultured in the absence of IL-3. Engineered BA/F3 cell growth assays can be performed in either the absence or presence of IL-3, to assess the compound inhibition of FLT3 or to detect the presence of off-target activity, respectively. Inhibitors of FLT3 kinase activity reduce or eliminate the FLT3 oncogenic signaling, resulting in reduced cell proliferation. This inhibition is measured as a function of compound concentration to assess IC50 values.
Cells were seeded at 1×10^4 cells per well of a 96 well cell culture plate in 50 μl of cell culture medium. Compounds were dissolved in DMSO, typically at a concentration of 5 mM and were serially diluted 1:3 for a total of eight points and added to the cells to final concentrations of 10, 3.3, 1.1, 0.37, 0.12, 0.041, 0.014 and 0.0046 μM in 100 μl cell culture medium (final concentration 0.2% DMSO). […] The cells were incubated at 37° C., 5% CO2 for three days. CellTiter-Glo Buffer (Promega Cell Viability Assay catalog #G7573) and substrate were equilibrated to room temperature, and enzyme/substrate Recombinant Firefly Luciferase/Beetle Luciferin was reconstituted. The cell plates were equilibrated to room temperature for 30 minutes, then lysed by addition of an equivalent volume of the Celltiter-Glo Reagent. The plate was mixed for 10 minutes on a plate shaker to lyse the cells. The plates were read on a Tecan M1000 using Luminescence protocol modified to read 0.1 s per well. The luminescence reading assesses the ATP content, which correlates directly with cell number such that the reading as a function of compound concentration was used to determine the IC50 value.

With CC(C)(C)n1cnc2ccc(-c3c[nH]c4ncc(-c5cnn(C(F)F)c5)nc34)cc21 [P-255, 7-(3-tert-butylbenzimidazol-5-yl)-2-[1-(difluoromethyl)pyrazol-4-yl]-5H-pyrrolo[2,3-b]pyrazine] the GI50 was 0.0001 to 1 µM.

COc1cc(-c2cnc3[nH]cc(-c4ccc5ncn([C@@H]6CCCNC6)c5c4)c3n2)ccn1 [P-254, 2-(2-methoxy-4-pyridyl)-7-[3-[(3R)-3-piperidyl]benzimidazol-5-yl]-5H-pyrrolo[2,3-b]pyrazine] showed a GI50 of 0.0001 to 1 µM.

CC(C)(C)n1cnc2ccc(-c3c[nH]c4ncc(NC(=O)c5cccc(C#N)c5)cc34)cc21 [P-235, N-[3-(3-tert-butylbenzimidazol-5-yl)-1H-pyrrolo[2,3-b]pyridin-5-yl]-3-cyano-benzamide] showed a GI50 of 0.0001 to 1 µM.

c1cc(-c2cnc3[nH]cc(-c4ccc5ncn(C6CCCNC6)c5c4)c3c2)cc(N2CCOCC2)n1 (stereo not drawn) [P-223, 4-[4-[3-[3-(3-piperidyl)benzimidazol-5-yl]-1H-pyrrolo[2,3-b]pyridin-5-yl]-2-pyridyl]morpholine] gave a GI50 of 0.0001 to 1 µM.

Work on O=C(Nc1cccc(F)c1)c1cnc2[nH]cc(-c3ccc4ncn(C5CCCNC5)c4c3)c2c1 (stereo not drawn) [P-178, N-(3-fluorophenyl)-3-[3-(3-piperidyl)benzimidazol-5-yl]-1H-pyrrolo[2,3-b]pyridine-5-carboxamide] yielded a GI50 of 0.0001 to 1 µM.

Compound CC(C)(C)n1cnc2ccc(-c3c[nH]c4ncc(-c5cnn(C(F)F)c5)cc34)cc21 [P-251, 1-tert-butyl-6-[5-[1-(difluoromethyl)pyrazol-4-yl]-1H-pyrrolo[2,3-b]pyridin-3-yl]benzimidazole] has a GI50 of 0.0001 to 1 µM.

For COc1cc(-c2cnc3[nH]cc(-c4ccc5ncn(C6CCCN(C)C6)c5c4)c3n2)ccn1 (stereo not drawn) [P-271, 2-(2-methoxy-4-pyridyl)-7-[3-(1-methyl-3-piperidyl)benzimidazol-5-yl]-5H-pyrrolo[2,3-b]pyrazine], the GI50 was 0.0001 to 1 µM.

Compound CC(C)(C)n1cnc2ccc(-c3c[nH]c4ncc(-c5cccc(N6CCCS6(=O)=O)c5)nc34)cc21 [P-231, 2-[3-[7-(3-tert-butylbenzimidazol-5-yl)-5H-pyrrolo[2,3-b]pyrazin-2-yl]phenyl]-1,2-thiazolidine 1,1-dioxide] has a GI50 of 0.0001 to 1 µM.

Work on COc1cnc2[nH]cc(-c3cnc4ncn(Cc5cc(C)on5)c4c3)c2c1 [P-144, 3-[[6-(5-methoxy-1H-pyrrolo[2,3-b]pyridin-3-yl)imidazo[4,5-b]pyridin-1-yl]methyl]-5-methyl-isoxazole] yielded a GI50 of 0.0001 to 1 µM.

Compound COc1cnc2[nH]cc(-c3ccc4ncn(-c5cccc(Cl)c5)c4c3)c2c1 [P-105, 1-(3-chlorophenyl)-6-(5-methoxy-1H-pyrrolo[2,3-b]pyridin-3-yl)benzimidazole] has a GI50 of 0.0001 to 1 µM.

Work on CC(C)(C)n1cnc2ccc(-c3c[nH]c4ncc(-c5ccc(N6CCOCC6)cc5)nc34)cc21 [P-100, 4-[4-[7-(3-tert-butylbenzimidazol-5-yl)-5H-pyrrolo[2,3-b]pyrazin-2-yl]phenyl]morpholine] yielded a GI50 of 0.0001 to 1 µM.

For Cn1cnc2ccc(-c3c[nH]c4ncc(-c5cnn(CC(F)(F)F)c5)cc34)cc21 [P-175, 1-methyl-6-[5-[1-(2,2,2-trifluoroethyl)pyrazol-4-yl]-1H-pyrrolo[2,3-b]pyridin-3-yl]benzimidazole], the GI50 was 0.0001 to 1 µM.

In the case of COc1ncccc1C#Cc1cnc2[nH]cc(-c3ccc4ncn(C(C)(C)C)c4c3)c2n1 [P-250, 7-(3-tert-butylbenzimidazol-5-yl)-2-[2-(2-methoxy-3-pyridyl)ethynyl]-5H-pyrrolo[2,3-b]pyrazine], the GI50 is reported as 0.0001 to 1 µM.

N#Cc1cc(-c2cnc3[nH]cc(-c4ccc5ncn(C6CCCNC6)c5c4)c3c2)ccc1F (stereo not drawn) [P-208, 2-fluoro-5-[3-[3-(3-piperidyl)benzimidazol-5-yl]-1H-pyrrolo[2,3-b]pyridin-5-yl]benzonitrile] was tested, and the GI50 was 0.0001 to 1 µM.

With CC(C)(C)n1cnc2ccc(-c3c[nH]c4ncc(-c5ccnc(N6CCOCC6)c5)nc34)cc21 [P-228, 4-[4-[7-(3-tert-butylbenzimidazol-5-yl)-5H-pyrrolo[2,3-b]pyrazin-2-yl]-2-pyridyl]morpholine] the GI50 was 0.0001 to 1 µM.
